Measured values: PubChem BioAssay AID256 (DTP/NCI, 2004)
Inconclusive results and toxic doses are left out. Rule for the calls: active = survival T/C of 150% or more; inactive = T/C below 125% in these data. Non-standard residues stand in square brackets, D forms with d. Residues, ends and D or L forms follow the SMILES beside them. *: point of attachment. Cbz = O=C(OCc1ccccc1)*; Abu = CC[CH](N)C(=O)O

System: CD2F1 mice, L1210 leukemia ip, survival T/C
Assay: NCI In Vivo Anticancer Drug Screen. Data for tumor model L1210 Leukemia (intraperitoneal) in CD2F1 (CDF1) mice
Settings: higher = longer survival
Procedure, shortened: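 Antitumor effect is scored in animals hosting a serially transplanted tumor. Values compare compound-dosed animals against vehicle-only controls as a simple quotient.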

[1] = endpoint: mean survival time, dose: 100.0 mg/kg/injection, schedule: Q04DX003 (ip), vehicle: saline
[2] = endpoint: mean survival time, dose: 200.0 mg/kg/injection, schedule: Q04DX003 (ip), vehicle: saline
[3] = endpoint: mean survival time, dose: 100.0 mg/kg/injection, schedule: Q01DX009 (ip), vehicle: saline with Tween-80
[4] = endpoint: mean survival time, dose: 100.0 mg/kg/injection, schedule: Q04DX003 (ip), vehicle: saline with Tween-80
[5] = endpoint: mean survival time, dose: 200.0 mg/kg/injection, schedule: Q01DX009 (ip), vehicle: saline with Tween-80
[6] = endpoint: mean survival time, dose: 200.0 mg/kg/injection, schedule: Q04DX003 (ip), vehicle: saline with Tween-80
[7] = endpoint: mean survival time, dose: 400.0 mg/kg/injection, schedule: Q01DX009 (ip), vehicle: saline with Tween-80
[8] = endpoint: mean survival time, dose: 400.0 mg/kg/injection, schedule: Q04DX003 (ip), vehicle: saline with Tween-80
[9] = endpoint: mean survival time, dose: 100.0 mg/kg/injection, schedule: Q01DX009 (ip), vehicle: Klucel (hydroxypropylcellulose) (HPC)
[10] = endpoint: mean survival time, dose: 200.0 mg/kg/injection, schedule: Q01DX009 (ip), vehicle: Klucel (hydroxypropylcellulose) (HPC)
[11] = endpoint: mean survival time, dose: 50.0 mg/kg/injection, schedule: Q01DX009 (ip), vehicle: saline with Tween-80
[12] = endpoint: mean survival time, dose: 200.0 mg/kg/injection, schedule: Q01DX001 (ip), vehicle: saline with Tween-80
[13] = endpoint: mean survival time, dose: 400.0 mg/kg/injection, schedule: Q01DX001 (ip), vehicle: saline with Tween-80

Measured: T/C

NC(=O)C1(C(N)=O)CC1
inactive: endpoint: mean survival time, dose: 100.0 mg/kg/injection, schedule: Q04DX002 (ip), vehicle: saline 108 % of control | endpoint: mean survival time, dose: 200.0 mg/kg/injection, schedule: Q04DX002 (ip), vehicle: saline 104 % of control | endpoint: mean survival time, dose: 400.0 mg/kg/injection, schedule: Q04DX002 (ip), vehicle: saline 100 % of control

Oc1cc(O)c2c(c1)OC(c1ccc(O)c(O)c1)C(O)C2c1c(O)cc(O)c2c1OC(c1ccc(O)c(O)c1)C(O)C2 (stereo not drawn)
inactive: [1] 107 % of control | [2] 95 % of control | endpoint: mean survival time, dose: 400.0 mg/kg/injection, schedule: Q04DX003 (ip), vehicle: saline 104 % of control

Cc1ccc(NS(=O)(=O)c2ccccc2)c([N+](=O)[O-])c1
inactive: [3] 97 % of control | [4] 105 % of control | [5] 95 % of control | [6] 97 % of control | [7] 100 % of control | [8] 100 % of control

Cc1c2c(cc3c1CCC1(C)C3CCC1C(C)CCC(C)C(C)C)CCCC2 (stereo not drawn)
inactive: [4] 94 % of control | [6] 94 % of control | [8] 89 % of control

O=S(=O)(O)SCCN1CCOCC1
inactive: endpoint: mean survival time, dose: 100.0 mg/kg/injection, schedule: Q01DX009 (ip), vehicle: saline 103 % of control | [4] 101 % of control | endpoint: mean survival time, dose: 200.0 mg/kg/injection, schedule: Q01DX009 (ip), vehicle: saline 106 % of control | [6] 101 % of control | endpoint: mean survival time, dose: 400.0 mg/kg/injection, schedule: Q01DX009 (ip), vehicle: saline 104 % of control | [8] 100 % of control

Nc1nn[nH]n1
inactive: [3] 95 % of control | [5] 90 % of control | [7] 94 % of control

Cc1ccc(S(=O)(=O)N2CCC(=O)c3ccc(Cl)cc32)cc1
inactive: [9] 101 % of control | [10] 93 % of control | endpoint: mean survival time, dose: 400.0 mg/kg/injection, schedule: Q01DX009 (ip), vehicle: Klucel (hydroxypropylcellulose) (HPC) 96 % of control

CCOC(=O)/C=C\C1CCCCC1
inactive: [11] 93 % of control | [3] 108 % of control | [5] 104 % of control

CO/N=C/C1OC(n2ccc(=O)[nH]c2=O)C2OC(C)(C)OC12 (stereo not drawn)
inactive: endpoint: median survival time, dose: 12.5 mg/kg/injection, schedule: Q01DX005 (ip), vehicle: Klucel (hydroxypropylcellulose) (HPC) 100 % of control | endpoint: median survival time, dose: 25.0 mg/kg/injection, schedule: Q01DX005 (ip), vehicle: Klucel (hydroxypropylcellulose) (HPC) 110 % of control | endpoint: median survival time, dose: 50.0 mg/kg/injection, schedule: Q01DX005 (ip), vehicle: Klucel (hydroxypropylcellulose) (HPC) 107 % of control | endpoint: median survival time, dose: 100.0 mg/kg/injection, schedule: Q01DX005 (ip), vehicle: Klucel (hydroxypropylcellulose) (HPC) 101 % of control

CCc1ccc(NS(=O)(=O)c2ccccc2)cc1
inactive: [3] 90 % of control | [5] 106 % of control | [7] 95 % of control

Cc1oc2ncnc(N)c2c1C
inactive: [4] 96 % of control | [6] 100 % of control | [8] 95 % of control

COc1ccc(OCCCn2cc(-c3ccc(Cl)c(Cl)c3)c(N)nc2=O)cc1
inactive: [4] 97 % of control | [6] 92 % of control | [8] 94 % of control

CCN(CC)C(=S)S[Se](SC(=S)N(CC)CC)(SC(=S)N(CC)CC)SC(=S)N(CC)CC
inactive: endpoint: median survival time, dose: 3.12 mg/kg/injection, schedule: Q01DX009 (ip), vehicle: Klucel (hydroxypropylcellulose) (HPC) 103 % of control | endpoint: median survival time, dose: 6.25 mg/kg/injection, schedule: Q01DX009 (ip), vehicle: Klucel (hydroxypropylcellulose) (HPC) 101 % of control | endpoint: median survival time, dose: 12.5 mg/kg/injection, schedule: Q01DX009 (ip), vehicle: Klucel (hydroxypropylcellulose) (HPC) 95 % of control | endpoint: median survival time, dose: 25.0 mg/kg/injection, schedule: Q01DX009 (ip), vehicle: Klucel (hydroxypropylcellulose) (HPC) 93 % of control | endpoint: median survival time, dose: 50.0 mg/kg/injection, schedule: Q01DX009 (ip), vehicle: Klucel (hydroxypropylcellulose) (HPC) 93 % of control

Cc1cc(O)c2c(c1)C(=O)c1cccc(O)c1C2=O
inactive: endpoint: mean survival time, dose: 6.25 mg/kg/injection, schedule: Q01DX001 (ip), vehicle: saline 115 % of control | endpoint: mean survival time, dose: 12.5 mg/kg/injection, schedule: Q01DX001 (ip), vehicle: saline 112 % of control | endpoint: mean survival time, dose: 25.0 mg/kg/injection, schedule: Q01DX001 (ip), vehicle: saline 102 % of control

CCOC(=O)NC(S(=O)(=O)O)S(=O)(=O)O
inactive: endpoint: mean survival time, dose: 100.0 mg/kg/injection, schedule: Q01DX001 (ip), vehicle: saline 104 % of control | endpoint: mean survival time, dose: 200.0 mg/kg/injection, schedule: Q01DX001 (ip), vehicle: saline 104 % of control | endpoint: mean survival time, dose: 400.0 mg/kg/injection, schedule: Q01DX001 (ip), vehicle: saline 108 % of control

CCCCN(C)CCNc1cc(C)nc(/N=C(\N)Nc2ccc(Cl)c(Cl)c2)n1
inactive: endpoint: mean survival time, dose: 75.0 mg/kg/injection, schedule: Q01DX001 (ip), vehicle: other 97 % of control

CCC(NC(=O)OCc1ccccc1)C(=O)N1CCCC1C(=O)OC (stereo not drawn) (Cbz-[Abu]-Pro-OMe; configuration not given here)
inactive: endpoint: mean survival time, dose: 100.0 mg/kg/injection, schedule: Q01DX001 (ip), vehicle: saline with Tween-80 103 % of control | [12] 104 % of control | [13] 103 % of control

CCc1c(N=O)c(-c2ccccc2)n(O)[n+]1[O-]
inactive: endpoint: mean survival time, dose: 50.0 mg/kg/injection, schedule: Q01DX009 (ip), vehicle: Klucel (hydroxypropylcellulose) (HPC) 104 % of control | [9] 101 % of control | [10] 95 % of control

CC(C)CN1C(=O)C2C3CCC(O3)C2C1=O (stereo not drawn)
inactive: endpoint: mean survival time, dose: 100.0 mg/kg/injection, schedule: Q04DX002 (ip), vehicle: saline with Tween-80 95 % of control | endpoint: mean survival time, dose: 200.0 mg/kg/injection, schedule: Q04DX002 (ip), vehicle: saline with Tween-80 91 % of control | endpoint: mean survival time, dose: 400.0 mg/kg/injection, schedule: Q04DX002 (ip), vehicle: saline with Tween-80 102 % of control

COC(CO)(OC)c1ccccc1
inactive: [4] 102 % of control | [6] 106 % of control | [8] 93 % of control

CC(CC(=O)c1ccccc1)=Nc1ccccc1.CC(CC(=O)c1ccccc1)=Nc1ccccc1.[O]=[V]
inactive: endpoint: mean survival time, dose: 50.0 mg/kg/injection, schedule: Q01DX001 (ip), vehicle: Klucel (hydroxypropylcellulose) (HPC) 96 % of control | endpoint: mean survival time, dose: 100.0 mg/kg/injection, schedule: Q01DX001 (ip), vehicle: Klucel (hydroxypropylcellulose) (HPC) 88 % of control | endpoint: mean survival time, dose: 200.0 mg/kg/injection, schedule: Q01DX001 (ip), vehicle: Klucel (hydroxypropylcellulose) (HPC) 94 % of control | endpoint: mean survival time, dose: 400.0 mg/kg/injection, schedule: Q01DX001 (ip), vehicle: Klucel (hydroxypropylcellulose) (HPC) 93 % of control | endpoint: mean survival time, dose: 800.0 mg/kg/injection, schedule: Q01DX001 (ip), vehicle: Klucel (hydroxypropylcellulose) (HPC) 90 % of control

CCC[CH2][Sn]1([CH2]CCC)[O]C2C(CO)OC(n3c(Br)c(C(N)=O)c4c(N)ncnc43)C2[O]1 (stereo not drawn)
inactive: endpoint: mean survival time, dose: 1.56 mg/kg/injection, schedule: Q01DX009 (ip), vehicle: distilled water + Tween-80 100 % of control | endpoint: mean survival time, dose: 3.13 mg/kg/injection, schedule: Q01DX009 (ip), vehicle: distilled water + Tween-80 107 % of control

Cn1c(=O)c2c(nc(N3CCOCC3)n2CCCNCC(O)c2cc(O)cc(O)c2)n(C)c1=O (stereo not drawn)
inactive: endpoint: mean survival time, dose: 12.5 mg/kg/injection, schedule: Q01DX005 (ip), vehicle: water 100 % of control | endpoint: mean survival time, dose: 25.0 mg/kg/injection, schedule: Q01DX005 (ip), vehicle: water 96 % of control | endpoint: mean survival time, dose: 50.0 mg/kg/injection, schedule: Q01DX005 (ip), vehicle: water 94 % of control | endpoint: mean survival time, dose: 100.0 mg/kg/injection, schedule: Q01DX005 (ip), vehicle: water 97 % of control | endpoint: mean survival time, dose: 200.0 mg/kg/injection, schedule: Q01DX005 (ip), vehicle: water 92 % of control

C=C(C)CCNc1ncnc2nc[nH]c12
inactive: [4] 97 % of control | [6] 101 % of control | [8] 95 % of control

c1ccc(CN=NNc2ccccc2)cc1
inactive: endpoint: mean survival time, dose: 75.0 mg/kg/injection, schedule: Q01DX001 (ip), vehicle: saline 94 % of control | endpoint: mean survival time, dose: 150.0 mg/kg/injection, schedule: Q01DX001 (ip), vehicle: saline 100 % of control | endpoint: mean survival time, dose: 300.0 mg/kg/injection, schedule: Q01DX001 (ip), vehicle: saline 103 % of control

CC(=O)NC(=O)CC(O)(c1ccccc1)c1ccccc1
inactive: [12] 91 % of control | [13] 88 % of control

CN(C)c1ccccc1C1=CCCCC1
inactive: endpoint: mean survival time, dose: 50.0 mg/kg/injection, schedule: Q04DX003 (ip), vehicle: saline 96 % of control | [1] 98 % of control | [2] 104 % of control

Cc1ccc([N+](=O)[O-])c(P(=O)(O)O)c1
inactive: endpoint: mean survival time, dose: 25.0 mg/kg/injection, schedule: Q01DX009 (ip), vehicle: saline with Tween-80 91 % of control | [11] 88 % of control | [3] 87 % of control
